Measured values as given in publication PMC12802961 (Journal of Antimicrobial Chemotherapy, 2025).
“And” between values parts separate entries of the source, which are not always exact repeats. Identical values can stand only once. Marks after values point to notes of the source that are not given here.

Tests used:
[1] = system: E. coli 52; experiment: Checkerboard broth microdilution MIC of cefepime alone and with taniborbactam; assay type: cell-based, Escherichia coli; settings: ESBL-producing E. coli; in vitro checkerboard
Description: (§1) Four previously well-characterized cefepime-resistant isolates, namely one ESBL-producing E. coli, one ESBL-producing K. pneumoniae and two P. aeruginosa (one VIM- and one AmpC constitutively -producing), were used.

[2] = system: P. aeruginosa 106; experiment: as above; assay type: cell-based, Pseudomonas aeruginosa; settings: AmpC constitutively-producing P. aeruginosa; in vitro checkerboard
Description: as §1

[3] = system: P. aeruginosa 132; experiment: as above; assay type: cell-based, Pseudomonas aeruginosa; settings: VIM-producing P. aeruginosa; in vitro checkerboard
Description: as §1

[4] = Protein binding, equilibrium dialysis chamber, LC-MS/MS; assay type: in vitro ADME
Description: […]. […] […].
(§2) . […] Free drug concentrations were used in all calculations. […]

[5] = system: K. pneumoniae 59; experiment: Neutropenic murine thigh infection model; assay type: in vivo, Klebsiella pneumoniae
Procedure: (§3) All dosing regimens were performed in at least two animals per dosing regimen.
(§4) At t = 0 h, 2 h after infection, two mice were humanely euthanized to determine the initial number of cfu/thigh just before treatment. […] Subsequently, thighs were homogenized using the Ultra-Turrax homogenizer (IKA Labortechnik, Germany). For each thigh 10-fold dilution series were prepared and 3 × 10 µL per dilution were plated (Chromagar, bioMérieux, NL). The following day, colonies were counted and the number of cfu/thigh was calculated.
(§5) Free drug concentrations were used in all calculations.

[6] = system: P. aeruginosa 106; experiment: Neutropenic murine thigh infection model; assay type: in vivo, Pseudomonas aeruginosa
Procedure: as §3, §4, §5

[7] = system: P. aeruginosa 132; experiment: Neutropenic murine thigh infection model; assay type: in vivo, Pseudomonas aeruginosa
Procedure: as §3, §4, §5

[8] = system: ESBL-producing Enterobacterales; experiment: Neutropenic murine thigh infection model, Enterobacterales together; assay type: in vivo; settings: Ct where in vitro reversal of cefepime resistance was found
Procedure: (§6) […]. […] […]. All dosing regimens were performed in at least two animals per dosing regimen.
(§7) At t = 0 h, 2 h after infection, two mice were humanely euthanized to determine the initial number of cfu/thigh just before treatment. All other animals were euthanized at t = 24 h unless the welfare of the animals indicated earlier termination, following animal welfare regulations. Thighs were taken and moved to a pre-cooled 10 mL plastic tube (Transport Tube, Omnilabo, NL) containing 2 mL PBS (NaCl 8.00 g/L, Na2HPO4 * 2H2O 1.44 g/L, KH2PO4 0.26 g/L, pH 7.2–7.4). Subsequently, thighs were homogenized using the Ultra-Turrax homogenizer (IKA Labortechnik, Germany). For each thigh 10-fold dilution series were prepared and 3 × 10 µL per dilution were plated (Chromagar, bioMérieux, NL). The following day, colonies were counted and the number of cfu/thigh was calculated. The drug effect was then determined as the difference between the log10cfu/thigh values at t = 24 h and t = 0 h (mean value of two mice) expressed as Δlog10cfu, i.e. positive result for growth, zero for static effect and negative for reduction of inoculum (killing).
as §2

[9] = system: P. aeruginosa isolates; experiment: Neutropenic murine thigh infection model, P. aeruginosa isolates together; assay type: in vivo, Pseudomonas aeruginosa; settings: Ct where in vitro reversal of cefepime resistance was found
Procedure: as §6, §7, §2

[10] = in vivo
[11] = system: AmpC constitutively-producing P. aeruginosa; settings: cited from earlier work
[12] = system: MBL- and ESBL-producing isolates; settings: cited from earlier work
[13] = human, in vivo; cited from earlier work
[14] = + cefepime q2h 64 mg/kg, Ct 0.015 mg/L
[15] = + cefepime q2h 64 mg/kg, Ct 0.03 mg/L
[16] = + cefepime q2h 64 mg/kg, Ct 0.06 mg/L
[17] = + cefepime q2h 64 mg/kg, Ct 0.125 mg/L
[18] = + cefepime q2h 64 mg/kg, Ct 0.25 mg/L
[19] = + cefepime q2h 64 mg/kg, Ct 0.5 mg/L
[20] = + cefepime q2h 64 mg/kg, Ct 1 mg/L
[21] = + cefepime q2h 64 mg/kg, Ct 2 mg/L
[22] = + cefepime q2h 64 mg/kg, Ct 4 mg/L
[23] = taniborbactam q2h + cefepime q2h 64 mg/kg
[24] = + cefepime q2h 8 mg/kg, Ct 0.015 mg/L
[25] = + cefepime q2h 8 mg/kg, Ct 0.03 mg/L
[26] = + cefepime q2h 8 mg/kg, Ct 0.06 mg/L
[27] = + cefepime q2h 8 mg/kg, Ct 0.125 mg/L
[28] = + cefepime q2h 8 mg/kg, Ct 0.25 mg/L
[29] = + cefepime q2h 8 mg/kg, Ct 0.5 mg/L
[30] = + cefepime q2h 8 mg/kg, Ct 1 mg/L
[31] = + cefepime q2h 8 mg/kg, Ct 2 mg/L
[32] = + cefepime q2h 8 mg/kg, Ct 4 mg/L
[33] = taniborbactam q2h + cefepime q2h 8 mg/kg

NCCN[C@H]1CC[C@H](CC(=O)N[C@H]2Cc3cccc(C(=O)O)c3OB2O)CC1 [taniborbactam, Taniborbactam]
Taniborbactam concentration at which reversal of phenotypic resistance to cefepime was observed [1]: ≤ 0.03 mg/L | Taniborbactam concentration at which reversal of phenotypic resistance to cefepime was observed [2]: 2 mg/L | Taniborbactam concentration at which reversal of phenotypic resistance to cefepime was observed [3]: 0.125 mg/L | Protein binding [4]: 19.6% | Stasis: Taniborbactam %ƒT > Ct 0.015 mg/L ([5]; + cefepime q2h 4 mg/kg, Ct 0.015 mg/L): 100% | 1 log kill: Taniborbactam %ƒT > Ct 0.015 mg/L ([5]; + cefepime q2h 4 mg/kg, Ct 0.015 mg/L, at extrapolated dose): 100% | Stasis: Taniborbactam %ƒT > Ct 0.03 mg/L ([5]; + cefepime q2h 4 mg/kg, Ct 0.03 mg/L): 100% | 1 log kill: Taniborbactam %ƒT > Ct 0.03 mg/L ([5]; + cefepime q2h 4 mg/kg, Ct 0.03 mg/L, at extrapolated dose): 100% | Stasis: Taniborbactam %ƒT > Ct 0.06 mg/L ([5]; + cefepime q2h 4 mg/kg, Ct 0.06 mg/L): 86.2% | 1 log kill: Taniborbactam %ƒT > Ct 0.06 mg/L ([5]; + cefepime q2h 4 mg/kg, Ct 0.06 mg/L, at extrapolated dose): 100% | Stasis: Taniborbactam %ƒT > Ct 0.125 mg/L ([5]; + cefepime q2h 4 mg/kg, Ct 0.125 mg/L): 69.3% | 1 log kill: Taniborbactam %ƒT > Ct 0.125 mg/L ([5]; + cefepime q2h 4 mg/kg, Ct 0.125 mg/L, at extrapolated dose): 100% | Stasis: Taniborbactam %ƒT > Ct 0.25 mg/L ([5]; + cefepime q2h 4 mg/kg, Ct 0.25 mg/L): 52.4% | 1 log kill: Taniborbactam %ƒT > Ct 0.25 mg/L ([5]; + cefepime q2h 4 mg/kg, Ct 0.25 mg/L, at extrapolated dose): 100% | Stasis: Taniborbactam %ƒT > Ct 0.5 mg/L ([5]; + cefepime q2h 4 mg/kg, Ct 0.5 mg/L): 35.5% | 1 log kill: Taniborbactam %ƒT > Ct 0.5 mg/L ([5]; + cefepime q2h 4 mg/kg, Ct 0.5 mg/L, at extrapolated dose): 100% | Stasis: Taniborbactam %ƒT > Ct 1 mg/L ([5]; + cefepime q2h 4 mg/kg, Ct 1 mg/L): 18.6% | 1 log kill: Taniborbactam %ƒT > Ct 1 mg/L ([5]; + cefepime q2h 4 mg/kg, Ct 1 mg/L, at extrapolated dose): 99.01% | Stasis: Taniborbactam %ƒT > Ct 2 mg/L ([5]; + cefepime q2h 4 mg/kg, Ct 2 mg/L): 0% | 1 log kill: Taniborbactam %ƒT > Ct 2 mg/L ([5]; + cefepime q2h 4 mg/kg, Ct 2 mg/L, at extrapolated dose): 83.25% | Stasis: Taniborbactam %ƒT > Ct 4 mg/L ([5]; + cefepime q2h 4 mg/kg, Ct 4 mg/L): 0% | 1 log kill: Taniborbactam %ƒT > Ct 4 mg/L ([5]; + cefepime q2h 4 mg/kg, Ct 4 mg/L, at extrapolated dose): 66.35% | Stasis: Taniborbactam total daily dose ([5]; taniborbactam q2h + cefepime q2h 4 mg/kg): 24.00 mg/kg | 1 log kill: Taniborbactam total daily dose, mg/kg ([5]; taniborbactam q2h + cefepime q2h 4 mg/kg, extrapolated dose, effect not reached within tested doses): (680)^b mg/kg | 1 log kill: Taniborbactam %ƒT > Ct 0.015 mg/L [6, 14]: 100% | Stasis: Taniborbactam %ƒT > Ct 0.015 mg/L [6, 14]: 100% | 1 log kill: Taniborbactam %ƒT > Ct 0.03 mg/L [6, 15]: 100% | Stasis: Taniborbactam %ƒT > Ct 0.03 mg/L [6, 15]: 100% | 1 log kill: Taniborbactam %ƒT > Ct 0.06 mg/L [6, 16]: 100% | Stasis: Taniborbactam %ƒT > Ct 0.06 mg/L [6, 16]: 100% | 1 log kill: Taniborbactam %ƒT > Ct 0.125 mg/L [6, 17]: 100% | Stasis: Taniborbactam %ƒT > Ct 0.125 mg/L [6, 17]: 100% | 1 log kill: Taniborbactam %ƒT > Ct 0.25 mg/L [6, 18]: 100% | Stasis: Taniborbactam %ƒT > Ct 0.25 mg/L [6, 18]: 88.39% | 1 log kill: Taniborbactam %ƒT > Ct 0.5 mg/L [6, 19]: 96.5% | Stasis: Taniborbactam %ƒT > Ct 0.5 mg/L [6, 19]: 71.5% | 1 log kill: Taniborbactam %ƒT > Ct 1 mg/L [6, 20]: 79.6% and 79.61% | Stasis: Taniborbactam %ƒT > Ct 1 mg/L [6, 20]: 54.6% and 54.61% | 1 log kill: Taniborbactam %ƒT > Ct 2 mg/L [6, 21]: 62.71% | Stasis: Taniborbactam %ƒT > Ct 2 mg/L [6, 21]: 37.74% | 1 log kill: Taniborbactam %ƒT > Ct 4 mg/L [6, 22]: 45.8% | Stasis: Taniborbactam %ƒT > Ct 4 mg/L [6, 22]: 20.82% | 1 log kill: Taniborbactam total daily dose, mg/kg [6, 23]: 293 mg/kg | Stasis: Taniborbactam total daily dose [6, 23]: 105.00 mg/kg | 1 log kill: Taniborbactam %ƒT > Ct 0.015 mg/L [7, 24]: 100% | Stasis: Taniborbactam %ƒT > Ct 0.015 mg/L [7, 24]: 100% | 1 log kill: Taniborbactam %ƒT > Ct 0.03 mg/L [7, 25]: 100% | Stasis: Taniborbactam %ƒT > Ct 0.03 mg/L [7, 25]: 96.10% | 1 log kill: Taniborbactam %ƒT > Ct 0.06 mg/L [7, 26]: 88.19% | Stasis: Taniborbactam %ƒT > Ct 0.06 mg/L [7, 26]: 79.2% | 1 log kill: Taniborbactam %ƒT > Ct 0.125 mg/L [7, 27]: 71.30% | Stasis: Taniborbactam %ƒT > Ct 0.125 mg/L [7, 27]: 62.31% | 1 log kill: Taniborbactam %ƒT > Ct 0.25 mg/L [7, 28]: 54.41% | Stasis: Taniborbactam %ƒT > Ct 0.25 mg/L [7, 28]: 45.1% | 1 log kill: Taniborbactam %ƒT > Ct 0.5 mg/L [7, 29]: 37.51% | Stasis: Taniborbactam %ƒT > Ct 0.5 mg/L [7, 29]: 28.53% | 1 log kill: Taniborbactam %ƒT > Ct 1 mg/L [7, 30]: 20.6% and 20.62% | Stasis: Taniborbactam %ƒT > Ct 1 mg/L [7, 30]: 11.6% and 11.63% | 1 log kill: Taniborbactam %ƒT > Ct 2 mg/L [7, 31]: 3.72% | Stasis: Taniborbactam %ƒT > Ct 2 mg/L [7, 31]: 0% | 1 log kill: Taniborbactam %ƒT > Ct 4 mg/L [7, 32]: 0% | Stasis: Taniborbactam %ƒT > Ct 4 mg/L [7, 32]: 0% | 1 log kill: Taniborbactam total daily dose, mg/kg [7, 33]: 26 mg/kg | Stasis: Taniborbactam total daily dose [7, 33]: 18.00 mg/kg | %fT > Ct for 1 log kill [8]: 100% | %fT > Ct for stasis [8]: ~50% | %fT > Ct for 1 log kill [9]: ~60% | %fT > Ct for stasis [9]: ~40% | fT > Ct 8 mg/L [10]: 100% | Reduction of cefepime MICs (fold dilution) [11]: 2 fold | Cefepime MIC reduction [12]: ≥ 2 fold | half-life [13]: 10 h
